Results as given in article PMC12289521, “Ligand binding to a Ni–Fe cluster orchestrates conformational changes of the CO-dehydrogenase–acetyl-CoA synthase complex” (Nature Catalysis, 2025).

How the values were obtained:
[1] = target: T1, acetyl-CoA synthase (ACS) (Carboxydothermus hydrogenoformans, UniProt Q3ACS4); assay: ITC of methyl transfer to cluster A (two-substrate-two-product fit); format: binding
T1 construct: gene acsB; CODH–ACS complex, heterologously expressed in E. coli; with CO-dehydrogenase (CODH)
T1 sequence (Q3ACS4 1-732): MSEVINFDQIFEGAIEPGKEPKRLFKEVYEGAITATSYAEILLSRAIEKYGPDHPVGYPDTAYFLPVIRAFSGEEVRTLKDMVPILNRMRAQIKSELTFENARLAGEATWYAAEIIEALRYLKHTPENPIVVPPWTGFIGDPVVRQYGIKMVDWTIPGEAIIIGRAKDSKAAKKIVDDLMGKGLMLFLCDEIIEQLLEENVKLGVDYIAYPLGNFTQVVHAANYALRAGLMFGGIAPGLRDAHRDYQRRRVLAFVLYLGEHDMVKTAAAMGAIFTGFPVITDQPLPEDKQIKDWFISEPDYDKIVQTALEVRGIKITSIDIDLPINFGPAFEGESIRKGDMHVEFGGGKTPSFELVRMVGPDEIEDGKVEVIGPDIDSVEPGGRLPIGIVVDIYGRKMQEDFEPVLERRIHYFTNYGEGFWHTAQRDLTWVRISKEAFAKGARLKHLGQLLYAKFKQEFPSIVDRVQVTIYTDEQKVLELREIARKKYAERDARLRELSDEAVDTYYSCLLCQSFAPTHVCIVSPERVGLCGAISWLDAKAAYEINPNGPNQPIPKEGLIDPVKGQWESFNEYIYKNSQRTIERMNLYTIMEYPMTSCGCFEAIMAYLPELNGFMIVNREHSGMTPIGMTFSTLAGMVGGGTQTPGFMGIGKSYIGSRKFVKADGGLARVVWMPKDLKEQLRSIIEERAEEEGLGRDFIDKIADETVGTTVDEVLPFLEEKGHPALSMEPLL

[2] = target: T1, acetyl-CoA synthase (ACS); assay: ITC of CODH–ACS complex with […] Ti(III)–EDTA, […] °C; format: binding

Row | Molecule | ITC of methyl transfer to cluster A (two-substrate-two-product fit) [1] | Kd [2] [µM]
1 | methyl cobinamide | 341 | 
2 | CC(C)(COP(=O)(O)OP(=O)(O)OC[C@H]1O[C@@H](n2cnc3c(N)ncnc32)[C@H](O)[C@@H]1OP(=O)(O)O)[C@@H](O)C(=O)NCCC(=O)NCCS [CoA] |  | < 88
